Where two headings read alike, the source gives them in different places. *1 amine or outer side, *2 acyl side, *3 side chain or, on linkers, in order; H or OH if unused. Where a SMILES comes first, the peptide text is derived from it. Bridges are numbered along the chain shown (N, C = ends). [ ]: non-standard residue; d: D form. The star is where a group is joined. X61 = Cc1nc2c(F)cc(-c3ccc(Cl)cc3C[C@@H](C(=O)[*:2])N(C)[*:1])cc2n1C(C)C; X82 = CN([C@@H](Cc1cc(Cl)ccc1-c1cnn(S(C)(=O)=O)c1)C(=O)[*:2])[*:1]; X99 = CC(=O)N1CCC(Oc2ccc(Cl)cc2C[C@@H](C(=O)[*:2])N(C)[*:1])CC1; X111 = CN([C@@H](Cc1cc(Cl)ccc1-c1nnc(C2CC2)o1)C(=O)[*:2])[*:1]; X113 = Cc1cc(-c2ccc(Cl)cc2C[C@@H](C(=O)[*:2])N(C)[*:1])n(C)n1; X19 = CN([C@@H](Cc1cc(Cl)ccc1-c1ccn2ccnc2c1)C(=O)[*:2])[*:1]; X83 = CN([C@@H](Cc1cc(Cl)ccc1-c1cnn2c1COCC2)C(=O)[*:2])[*:1]; NMe3Pal(2-OiBu,5-Cl) = CN[C@@H](Cc1cc(Cl)cnc1OCC(C)C)C(=O)O; NMehhhLys(Me) = CN([C@@H](CCCCCCCN(C)[*:3])C(=O)[*:2])[*:1]; X2 = CN([C@@H](Cc1cc(Cl)ccc1-c1ccc2ncnn2c1)C(=O)[*:2])[*:1]; X67 = Cc1c(-c2ccc(Cl)cc2C[C@@H](C(=O)[*:2])N(C)[*:1])cnn1C; NMe3Pal(2-OMe,5-Cl) = CN[C@@H](Cc1cc(Cl)cnc1OC)C(=O)O; Oxane2carbonyl(2R-CF3) = O=C([C@@]1(C(F)(F)F)CCCCO1)*; Cyclobutanecarbonyl(1-CF3) = O=C(C1(C(F)(F)F)CCC1)*; cBuCO(3,3-F2-1-CF3) = O=C(C1(C(F)(F)F)CC(F)(F)C1)*; X25 = CCOc1ncc(Cl)cc1C[C@@H](C(=O)[*:2])N(C)[*:1]; Pro(trans-4-F) = O=C(O)[C@@H]1C[C@@H](F)CN1; Gly(cPr) = N[C@H](C(=O)O)C1CC1
What was measured:
WI-38 cells = test: MTT proliferation assay, WI-38; assay type: cell-based; details: 3 days compound exposure, 1:3 serial dilution starting at 10 μM;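 also: Eight- or ten-point dilution series, with exposure length chosen to span about three to four cell doublings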
CyclinE1/CDK2 = target: T1, CyclinE1/CDK2 (Homo sapiens, UniProt P24864); test: Fluorescence Polarization (FP) competitive binding assay, Cyclin E1/Cdk2;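 also: readings taken after two-hour equilibration at room temperature in HEPES buffer with NaCl, DTT, NP-40 and BSA, IC50 fitted from eight-concentration serial dilution series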
T1 construct: purchased Eurofins, discovery 14-475

CyclinB1/CDK1 = target: T2, CyclinB1/CDK1 (Homo sapiens, UniProt P14635); test: Fluorescence Polarization (FP) competitive binding assay, Cyclin B1/Cdk1;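 also: fluorescence polarization read after equilibration at room temperature, with IC50 taken from serially diluted dose-response curves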
T2 construct: purchased Eurofins, discovery 14-450

OVCAR3 cells = test: MTT proliferation assay, OVCAR3; assay type: cell-based; details: 5 days compound exposure, 1:3 serial dilution starting at 10 μM;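 also: compound given as an 8- or 10-point series, one day after plating, with exposure covering roughly 3-4 cell doublings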
CyclinA2/CDK2 = target: T3, CyclinA2/CDK2 (Homo sapiens, UniProt P20248); test: Fluorescence Polarization (FP) competitive binding assay, Cyclin A2/Cdk2;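 also: plates equilibrated two hours at room temperature before polarization reading, IC50 fitted from eight-concentration compound titration curves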
T3 construct: purchased CRELUX Protein Services

NCI-H1048 cells = test: MTT proliferation assay, NCI-H1048; assay type: cell-based; details: 5 days compound exposure, 1:3 serial dilution starting at 10 μM;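 also: Dose-response in 96-well plates over 8 or 10 concentration points, with exposure spanning 3-4 cell doublings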
[1] = read-out: Cyclin B FP IC50; 10 nM Cyclin B1/Cdk1, 2 nM FAM probe; average of 2-3 independent experiments
[2] = read-out: Cyclin A FP IC50, 8 nM Cyclin A2/Cdk2, 2 nM FAM probe, average of 2-3 independent experiments
[3] = 10 nM Cyclin E1/Cdk2, 2 nM FAM probe, average of 2-3 independent experiments, read-out: Cyclin E FP IC50
[4] = 10 nM Cyclin B1/Cdk1, 2 nM FAM probe; average of 2-3 independent experiments; read-out: Cyclin B FP IC50
[5] = 8 nM Cyclin A2/Cdk2, 2 nM FAM probe, average of 2-3 independent experiments, read-out: Cyclin A FP IC50

SMILES | GI50 (WI-38 cells) | IC50 (CyclinE1/CDK2) | IC50 (CyclinB1/CDK1; [1]) | GI50 (OVCAR3 cells) | IC50 (CyclinA2/CDK2; [2]) | GI50 (NCI-H1048 cells) | IC50 (CyclinE1/CDK2; [3]) | IC50 (CyclinB1/CDK1; [4]) | IC50 (CyclinA2/CDK2; [5]) | IC50 (CyclinA2/CDK2)
COc1ncc(Cl)cc1C[C@H]1C(=O)N(C)CCCCCCC[C@H](N(C)C(=O)[C@@H](NC(=O)[C@@H]2C[C@@H](F)CN2C(=O)[C@@]2(C(F)(F)F)CCCCO2)C2CC2)C(=O)N[C@@H](CC(C)C)C(=O)N1C [Example 223] ({Oxane2carbonyl(2R-CF3)}-[Pro(trans-4-F)][Gly(cPr)][NMehhhLys(Me)]L[NMe3Pal(2-OMe,5-Cl)]; lactam 3-C) | 7760 nM | 100 nM | 20 nM | 10 nM | 20 nM | 10 nM | – | – | – | –
COc1ncc(Cl)cc1C[C@H]1C(=O)N(C)CCCCCCC[C@H](N(C)C(=O)[C@@H](NC(=O)[C@@H]2C[C@@H](F)CN2C(=O)C2(C(F)(F)F)CCC2)C2CC2)C(=O)N[C@@H](CC(C)C)C(=O)N1C [Example 224] ({Cyclobutanecarbonyl(1-CF3)}-[Pro(trans-4-F)][Gly(cPr)][NMehhhLys(Me)]L[NMe3Pal(2-OMe,5-Cl)]; lactam 3-C) | 12400 nM | – | – | 10 nM | – | 10 nM | 100 nM | 20 nM | 30 nM | –
CCOc1ncc(Cl)cc1C[C@H]1C(=O)N(C)CCCCCCC[C@H](N(C)C(=O)[C@@H](NC(=O)[C@@H]2C[C@@H](F)CN2C(=O)[C@@]2(C(F)(F)F)CCCCO2)C2CC2)C(=O)N[C@@H](CC(C)C)C(=O)N1C [Example 226] ({Oxane2carbonyl(2R-CF3)}-[Pro(trans-4-F)][Gly(cPr)][NMehhhLys(Me)]L[X25]; lactam 3-C) | 8390 nM | 100 nM | 20 nM | 30 nM | 20 nM | 20 nM | – | – | – | –
CCOc1ncc(Cl)cc1C[C@H]1C(=O)N(C)CCCCCCC[C@H](N(C)C(=O)[C@@H](NC(=O)[C@@H]2C[C@@H](F)CN2C(=O)C2(C(F)(F)F)CCC2)C2CC2)C(=O)N[C@@H](CC(C)C)C(=O)N1C [Example 227] ({Cyclobutanecarbonyl(1-CF3)}-[Pro(trans-4-F)][Gly(cPr)][NMehhhLys(Me)]L[X25]; lactam 3-C) | 14100 nM | 120 nM | 20 nM | 40 nM | – | 20 nM | – | – | – | 30 nM
CC(C)COc1ncc(Cl)cc1C[C@H]1C(=O)N(C)CCCCCCC[C@H](N(C)C(=O)[C@@H](NC(=O)[C@@H]2C[C@@H](F)CN2C(=O)C2(C(F)(F)F)CCC2)C2CC2)C(=O)N[C@@H](CC(C)C)C(=O)N1C [Example 230] ({Cyclobutanecarbonyl(1-CF3)}-[Pro(trans-4-F)][Gly(cPr)][NMehhhLys(Me)]L[NMe3Pal(2-OiBu,5-Cl)]; lactam 3-C) | 5050 nM | 140 nM | 20 nM | 90 nM | – | 40 nM | – | – | – | 30 nM
Cc1nc2c(F)cc(-c3ccc(Cl)cc3C[C@H]3C(=O)N(C)CCCCCCC[C@H](N(C)C(=O)[C@@H](NC(=O)[C@@H]4C[C@@H](F)CN4C(=O)C4(C(F)(F)F)CC(F)(F)C4)C4CC4)C(=O)N[C@@H](CC(C)C)C(=O)N3C)cc2n1C(C)C [Example 231] ({cBuCO(3,3-F2-1-CF3)}-[Pro(trans-4-F)][Gly(cPr)][NMehhhLys(Me)]L[X61]; lactam 3-C) | 13400 nM | 2940 nM | 20 nM | 40 nM | – | 20 nM | – | – | – | 60 nM
CC(C)C[C@@H]1NC(=O)[C@@H](N(C)C(=O)[C@@H](NC(=O)[C@@H]2C[C@@H](F)CN2C(=O)C2(C(F)(F)F)CC(F)(F)C2)C2CC2)CCCCCCCN(C)C(=O)[C@H](Cc2cc(Cl)ccc2-c2ccc3ncnn3c2)N(C)C1=O [Example 232] ({cBuCO(3,3-F2-1-CF3)}-[Pro(trans-4-F)][Gly(cPr)][NMehhhLys(Me)]L[X2]; lactam 3-C) | 11600 nM | 2870 nM | 20 nM | 80 nM | – | 50 nM | – | – | – | 50 nM
CC(C)C[C@@H]1NC(=O)[C@@H](N(C)C(=O)[C@@H](NC(=O)[C@@H]2C[C@@H](F)CN2C(=O)C2(C(F)(F)F)CC(F)(F)C2)C2CC2)CCCCCCCN(C)C(=O)[C@H](Cc2cc(Cl)ccc2-c2cnn3c2COCC3)N(C)C1=O [Example 233] ({cBuCO(3,3-F2-1-CF3)}-[Pro(trans-4-F)][Gly(cPr)][NMehhhLys(Me)]L[X83]; lactam 3-C) | 15200 nM | 1600 nM | 20 nM | 30 nM | – | 30 nM | – | – | – | 50 nM
Cc1c(-c2ccc(Cl)cc2C[C@H]2C(=O)N(C)CCCCCCC[C@H](N(C)C(=O)[C@@H](NC(=O)[C@@H]3C[C@@H](F)CN3C(=O)C3(C(F)(F)F)CC(F)(F)C3)C3CC3)C(=O)N[C@@H](CC(C)C)C(=O)N2C)cnn1C [Example 234] ({cBuCO(3,3-F2-1-CF3)}-[Pro(trans-4-F)][Gly(cPr)][NMehhhLys(Me)]L[X67]; lactam 3-C) | 10700 nM | 830 nM | 20 nM | 10 nM | – | 10 nM | – | – | – | 30 nM
Cc1cc(-c2ccc(Cl)cc2C[C@H]2C(=O)N(C)CCCCCCC[C@H](N(C)C(=O)[C@@H](NC(=O)[C@@H]3C[C@@H](F)CN3C(=O)C3(C(F)(F)F)CC(F)(F)C3)C3CC3)C(=O)N[C@@H](CC(C)C)C(=O)N2C)n(C)n1 [Example 235] ({cBuCO(3,3-F2-1-CF3)}-[Pro(trans-4-F)][Gly(cPr)][NMehhhLys(Me)]L[X113]; lactam 3-C) | 13200 nM | 6080 nM | 20 nM | 90 nM | – | 100 nM | – | – | – | 140 nM
CC(C)C[C@@H]1NC(=O)[C@@H](N(C)C(=O)[C@@H](NC(=O)[C@@H]2C[C@@H](F)CN2C(=O)C2(C(F)(F)F)CC(F)(F)C2)C2CC2)CCCCCCCN(C)C(=O)[C@H](Cc2cc(Cl)ccc2-c2ccn3ccnc3c2)N(C)C1=O [Example 236] ({cBuCO(3,3-F2-1-CF3)}-[Pro(trans-4-F)][Gly(cPr)][NMehhhLys(Me)]L[X19]; lactam 3-C) | 7330 nM | – | – | 20 nM | – | 10 nM | 780 nM | 20 nM | 30 nM | –
CC(C)C[C@@H]1NC(=O)[C@@H](N(C)C(=O)[C@@H](NC(=O)[C@@H]2C[C@@H](F)CN2C(=O)C2(C(F)(F)F)CC(F)(F)C2)C2CC2)CCCCCCCN(C)C(=O)[C@H](Cc2cc(Cl)ccc2-c2cnn(S(C)(=O)=O)c2)N(C)C1=O [Example 238] ({cBuCO(3,3-F2-1-CF3)}-[Pro(trans-4-F)][Gly(cPr)][NMehhhLys(Me)]L[X82]; lactam 3-C) | 17300 nM | 990 nM | 20 nM | 20 nM | – | 10 nM | – | – | – | 30 nM
[2H]C([2H])([2H])n1cc(-c2ccc(Cl)cc2C[C@H]2C(=O)N(C)CCCCCCC[C@H](N(C)C(=O)[C@@H](NC(=O)[C@@H]3C[C@@H](F)CN3C(=O)C3(C(F)(F)F)CC(F)(F)C3)C3CC3)C(=O)N[C@@H](CC(C)C)C(=O)N2C)cn1 [Example 239] | 14300 nM | – | – | 20 nM | – | 20 nM | 420 nM | 20 nM | 20 nM | –
CC(C)C[C@@H]1NC(=O)[C@@H](N(C)C(=O)[C@@H](NC(=O)[C@@H]2C[C@@H](F)CN2C(=O)C2(C(F)(F)F)CC(F)(F)C2)C2CC2)CCCCCCCN(C)C(=O)[C@H](Cc2cc(Cl)ccc2-c2nnc(C3CC3)o2)N(C)C1=O [Example 240] ({cBuCO(3,3-F2-1-CF3)}-[Pro(trans-4-F)][Gly(cPr)][NMehhhLys(Me)]L[X111]; lactam 3-C) | 8730 nM | 140 nM | 20 nM | 10 nM | 20 nM | 10 nM | – | – | – | –
CC(=O)N1CCC(Oc2ccc(Cl)cc2C[C@H]2C(=O)N(C)CCCCCCC[C@H](N(C)C(=O)[C@@H](NC(=O)[C@@H]3C[C@@H](F)CN3C(=O)C3(C(F)(F)F)CC(F)(F)C3)C3CC3)C(=O)N[C@@H](CC(C)C)C(=O)N2C)CC1 [Example 243] ({cBuCO(3,3-F2-1-CF3)}-[Pro(trans-4-F)][Gly(cPr)][NMehhhLys(Me)]L[X99]; lactam 3-C) | 13300 nM | 690 nM | 20 nM | 40 nM | – | 50 nM | – | – | – | 50 nM
